How the values were obtained:
Assay in all cases: biochemical
Design in all cases: thermal shift assay (real-time PCR machine), melting temperature shift of recombinant bromodomains at 2 uM protein
BRD9 = biological target: T1, BRD9 (Homo sapiens, UniProt Q9H8M2)
T1 construct: bromodomain
Experimental: (§1) The recombinant bromodomains at 2 μM were mixed with 10 μM inhibitors. The assays and data evaluation for melting temperatures were performed using a Real-Time PCR Mx3005p machine (Stratagene) and the protocols previously described. Experiments profiling the final compound (PNZ5) were performed in quadruplicates. […] Since its discovery in our own labs, similar inhibitors have also been disclosed by researchers at Boehringer Ingelheim [reference: patent, WO 2014/154760 [31]]. The inhibitor contains two possible acetyl-lysine mimetic moieties. In order to obtain molecular insights on the interaction of the developed inhibitor, the crystal structure of the first bromodomain of BRD4 in complex with PNZ5 was solved at 1.85 Å (Figure 2C and Supplementary Table 4, 5FBX.pdb). The inhibitor, coordinating residues and water molecules were well defined by the electron density. The dimethylisoxazole moiety mimicked the acetyl lysine side chain and formed two canonical hydrogen-bond interactions with Asn140 and water mediated hydrogen-bond with Tyr 97 (Figure 2C). The common network of waters within the binding site was also conserved in the BRD4(1)-PNZ5 complex. The compound was further stabilized by lipophilic interactions with residues forming the binding site Leu92, Leu94, Ile146. The [compound left out] substituent was well accommodated next to the WPF shelf, as well as the N1-methyl substituent that formed hydrophobic interactions with Trp81. The carbonyl on the isoindolinone established a water-mediated hydrogen bond with Lys91.

BRDT(1) = biological target: T2, BRDT(1) (Homo sapiens, UniProt Q58F21)
T2 construct: bromodomain 1
Experimental: as §1

PB1(6) = biological target: T3, PB1(6) (Homo sapiens, UniProt Q86U86)
T3 construct: gene PBRM1; bromodomain 6
Experimental: as §1

SP140L = biological target: T4, SP140L (Homo sapiens, UniProt Q9H930)
T4 construct: bromodomain
Experimental: as §1

ASH1L = biological target: T5, ASH1L (Homo sapiens, UniProt Q9NR48)
T5 construct: bromodomain
Experimental: as §1

SP140 = biological target: T6, SP140 (Homo sapiens, UniProt Q13342)
T6 construct: bromodomain
Experimental: as §1

BRPF3 = biological target: T7, BRPF3 (Homo sapiens, UniProt Q9ULD4)
T7 construct: bromodomain
Experimental: as §1

BRWD3(2) = biological target: T8, BRWD3(2) (Homo sapiens, UniProt Q6RI45)
T8 construct: bromodomain 2
Experimental: as §1

BAZ1B = biological target: T9, BAZ1B (Homo sapiens, UniProt Q9UIG0)
T9 construct: bromodomain
Experimental: as §1

BAZ2B = biological target: T10, BAZ2B (Homo sapiens, UniProt Q9UIF8)
T10 construct: bromodomain
Experimental: as §1

PB1(2) = biological target: T11, PB1(2) (Homo sapiens, UniProt Q86U86)
T11 construct: gene PBRM1; bromodomain 2
Experimental: as §1

BRDT(2) = biological target: T12, BRDT(2) (Homo sapiens, UniProt Q58F21)
T12 construct: bromodomain 2
Experimental: as §1

EP300 = biological target: T13, EP300 (Homo sapiens, UniProt Q09472)
T13 construct: bromodomain
Experimental: as §1

PB1(1) = biological target: T14, PB1(1) (Homo sapiens, UniProt Q86U86)
T14 construct: gene PBRM1; bromodomain 1
Experimental: as §1

CREBBP = biological target: T15, CREBBP (Homo sapiens, UniProt Q92793)
T15 construct: bromodomain
Experimental: as §1

T9 sequence (Q9UIG0 whole entry): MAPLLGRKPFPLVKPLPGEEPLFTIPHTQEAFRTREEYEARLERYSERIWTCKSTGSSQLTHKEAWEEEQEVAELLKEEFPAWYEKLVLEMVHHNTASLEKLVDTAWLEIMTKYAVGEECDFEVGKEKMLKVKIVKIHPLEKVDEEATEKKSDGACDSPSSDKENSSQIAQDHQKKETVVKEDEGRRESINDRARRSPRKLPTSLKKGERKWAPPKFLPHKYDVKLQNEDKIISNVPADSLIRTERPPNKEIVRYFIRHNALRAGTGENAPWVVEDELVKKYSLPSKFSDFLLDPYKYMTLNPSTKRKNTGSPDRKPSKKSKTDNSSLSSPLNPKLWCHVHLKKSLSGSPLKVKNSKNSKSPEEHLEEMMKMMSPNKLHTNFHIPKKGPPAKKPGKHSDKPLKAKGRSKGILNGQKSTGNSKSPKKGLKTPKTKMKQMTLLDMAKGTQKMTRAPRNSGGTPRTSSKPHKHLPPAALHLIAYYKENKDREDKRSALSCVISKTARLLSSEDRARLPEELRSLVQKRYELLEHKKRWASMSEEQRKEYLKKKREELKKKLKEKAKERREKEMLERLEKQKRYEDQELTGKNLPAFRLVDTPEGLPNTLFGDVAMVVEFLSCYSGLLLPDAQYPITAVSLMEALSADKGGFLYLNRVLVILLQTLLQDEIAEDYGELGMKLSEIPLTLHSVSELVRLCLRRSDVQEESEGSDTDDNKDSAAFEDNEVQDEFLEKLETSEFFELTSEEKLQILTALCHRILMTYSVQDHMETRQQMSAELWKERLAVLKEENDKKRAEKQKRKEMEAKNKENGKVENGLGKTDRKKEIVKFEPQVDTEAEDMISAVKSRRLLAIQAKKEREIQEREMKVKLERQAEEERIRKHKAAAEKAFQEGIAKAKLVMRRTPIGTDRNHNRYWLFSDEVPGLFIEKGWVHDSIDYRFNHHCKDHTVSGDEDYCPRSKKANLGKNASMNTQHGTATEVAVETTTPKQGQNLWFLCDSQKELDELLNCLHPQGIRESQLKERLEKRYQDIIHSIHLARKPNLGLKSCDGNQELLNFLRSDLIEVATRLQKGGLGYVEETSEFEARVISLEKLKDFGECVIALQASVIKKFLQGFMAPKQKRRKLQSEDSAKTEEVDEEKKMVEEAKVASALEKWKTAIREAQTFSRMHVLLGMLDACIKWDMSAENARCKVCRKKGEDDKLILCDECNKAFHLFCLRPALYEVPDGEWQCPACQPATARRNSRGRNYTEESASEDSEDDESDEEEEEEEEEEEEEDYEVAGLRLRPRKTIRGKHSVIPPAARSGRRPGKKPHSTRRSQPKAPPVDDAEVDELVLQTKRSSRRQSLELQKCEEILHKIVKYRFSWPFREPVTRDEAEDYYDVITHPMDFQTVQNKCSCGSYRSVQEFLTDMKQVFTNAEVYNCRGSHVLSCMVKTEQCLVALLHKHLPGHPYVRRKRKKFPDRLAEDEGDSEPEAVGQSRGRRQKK
T6 sequence (Q13342 whole entry): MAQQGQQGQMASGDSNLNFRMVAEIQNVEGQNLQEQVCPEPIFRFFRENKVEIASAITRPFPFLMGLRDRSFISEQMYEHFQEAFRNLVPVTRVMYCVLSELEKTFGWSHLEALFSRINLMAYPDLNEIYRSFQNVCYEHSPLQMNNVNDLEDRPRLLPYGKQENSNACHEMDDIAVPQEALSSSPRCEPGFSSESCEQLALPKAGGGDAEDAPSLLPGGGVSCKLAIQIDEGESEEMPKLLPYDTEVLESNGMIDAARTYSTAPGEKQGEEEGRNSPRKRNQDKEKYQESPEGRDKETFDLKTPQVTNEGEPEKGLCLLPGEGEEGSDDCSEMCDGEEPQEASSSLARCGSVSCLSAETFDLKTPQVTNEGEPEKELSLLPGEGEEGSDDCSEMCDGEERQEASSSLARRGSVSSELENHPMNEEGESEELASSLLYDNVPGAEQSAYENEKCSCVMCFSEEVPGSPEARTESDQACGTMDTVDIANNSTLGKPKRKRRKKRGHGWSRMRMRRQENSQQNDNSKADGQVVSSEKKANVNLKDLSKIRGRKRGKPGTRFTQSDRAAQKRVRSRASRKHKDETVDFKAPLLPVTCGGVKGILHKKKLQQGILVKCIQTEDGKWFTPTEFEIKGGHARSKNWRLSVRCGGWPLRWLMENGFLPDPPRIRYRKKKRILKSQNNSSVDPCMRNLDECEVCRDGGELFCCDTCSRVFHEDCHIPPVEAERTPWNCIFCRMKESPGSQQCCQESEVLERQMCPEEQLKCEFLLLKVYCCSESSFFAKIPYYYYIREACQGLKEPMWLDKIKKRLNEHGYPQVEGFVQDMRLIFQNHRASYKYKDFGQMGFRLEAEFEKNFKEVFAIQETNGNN
T4 sequence (Q9H930 whole entry): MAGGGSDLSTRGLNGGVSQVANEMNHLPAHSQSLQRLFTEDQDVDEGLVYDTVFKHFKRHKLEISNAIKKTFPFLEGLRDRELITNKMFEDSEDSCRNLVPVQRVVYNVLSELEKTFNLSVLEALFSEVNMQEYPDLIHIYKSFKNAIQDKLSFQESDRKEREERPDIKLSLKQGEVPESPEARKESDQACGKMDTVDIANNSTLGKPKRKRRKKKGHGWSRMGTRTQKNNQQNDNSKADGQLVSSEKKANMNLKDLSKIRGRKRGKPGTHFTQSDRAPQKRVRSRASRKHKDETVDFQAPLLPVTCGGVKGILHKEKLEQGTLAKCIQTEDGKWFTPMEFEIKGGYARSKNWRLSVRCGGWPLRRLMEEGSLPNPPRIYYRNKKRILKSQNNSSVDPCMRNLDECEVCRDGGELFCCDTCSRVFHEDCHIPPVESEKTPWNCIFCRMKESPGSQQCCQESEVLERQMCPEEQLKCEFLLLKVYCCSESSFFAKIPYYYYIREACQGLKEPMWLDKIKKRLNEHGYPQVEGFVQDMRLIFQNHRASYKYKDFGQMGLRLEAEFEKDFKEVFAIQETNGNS
T7 sequence (Q9ULD4 whole entry): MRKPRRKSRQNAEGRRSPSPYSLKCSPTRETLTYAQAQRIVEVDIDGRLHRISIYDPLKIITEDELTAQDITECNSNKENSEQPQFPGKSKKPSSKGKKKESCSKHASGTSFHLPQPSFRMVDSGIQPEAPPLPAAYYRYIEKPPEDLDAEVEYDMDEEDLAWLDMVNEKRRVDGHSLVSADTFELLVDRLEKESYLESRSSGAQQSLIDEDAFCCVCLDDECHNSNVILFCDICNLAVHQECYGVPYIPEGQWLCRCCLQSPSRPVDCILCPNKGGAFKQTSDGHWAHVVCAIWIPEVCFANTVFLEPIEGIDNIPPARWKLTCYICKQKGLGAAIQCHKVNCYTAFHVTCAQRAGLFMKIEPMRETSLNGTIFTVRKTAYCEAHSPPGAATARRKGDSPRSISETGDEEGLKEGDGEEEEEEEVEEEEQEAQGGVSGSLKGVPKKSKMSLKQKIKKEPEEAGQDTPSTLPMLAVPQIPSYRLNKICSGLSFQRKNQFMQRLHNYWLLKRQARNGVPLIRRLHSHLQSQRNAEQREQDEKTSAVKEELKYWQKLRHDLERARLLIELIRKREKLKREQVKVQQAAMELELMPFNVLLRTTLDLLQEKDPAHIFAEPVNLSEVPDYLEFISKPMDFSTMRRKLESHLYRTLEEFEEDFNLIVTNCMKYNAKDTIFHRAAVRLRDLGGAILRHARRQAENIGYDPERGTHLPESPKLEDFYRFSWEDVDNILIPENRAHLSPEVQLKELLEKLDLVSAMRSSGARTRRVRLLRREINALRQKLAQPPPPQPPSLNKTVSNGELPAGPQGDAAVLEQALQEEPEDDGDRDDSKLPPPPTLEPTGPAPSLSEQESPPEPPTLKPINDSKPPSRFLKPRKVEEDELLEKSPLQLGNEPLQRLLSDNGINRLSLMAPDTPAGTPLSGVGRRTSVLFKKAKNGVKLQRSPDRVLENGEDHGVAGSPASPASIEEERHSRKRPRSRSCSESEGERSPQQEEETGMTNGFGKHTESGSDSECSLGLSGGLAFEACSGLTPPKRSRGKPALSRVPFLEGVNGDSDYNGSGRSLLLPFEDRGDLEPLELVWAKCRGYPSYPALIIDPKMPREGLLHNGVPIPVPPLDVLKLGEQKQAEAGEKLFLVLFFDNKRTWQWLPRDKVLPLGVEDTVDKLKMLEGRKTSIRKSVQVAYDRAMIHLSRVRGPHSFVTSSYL
T1 sequence (Q9H8M2 whole entry): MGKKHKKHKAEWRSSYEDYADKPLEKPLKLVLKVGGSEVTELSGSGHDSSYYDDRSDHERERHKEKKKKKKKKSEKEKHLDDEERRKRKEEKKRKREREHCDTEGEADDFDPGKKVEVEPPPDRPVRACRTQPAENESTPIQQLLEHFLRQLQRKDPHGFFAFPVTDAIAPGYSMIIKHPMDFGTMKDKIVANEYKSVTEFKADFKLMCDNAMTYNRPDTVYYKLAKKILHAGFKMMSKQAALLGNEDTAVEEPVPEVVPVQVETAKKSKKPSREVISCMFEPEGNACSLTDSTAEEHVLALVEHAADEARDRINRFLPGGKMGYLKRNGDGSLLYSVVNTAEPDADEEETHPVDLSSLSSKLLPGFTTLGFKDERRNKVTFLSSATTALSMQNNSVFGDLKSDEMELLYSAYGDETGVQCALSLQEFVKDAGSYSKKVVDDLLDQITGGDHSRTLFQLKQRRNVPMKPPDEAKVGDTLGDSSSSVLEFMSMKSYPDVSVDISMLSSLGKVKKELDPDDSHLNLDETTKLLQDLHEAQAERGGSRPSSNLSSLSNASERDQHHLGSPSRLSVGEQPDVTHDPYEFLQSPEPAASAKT

## Cc1noc(C)c1-c1ccc2c(c1)[C@H](c1ccccc1)N(C)C2=O [PNZ5]
BRD9
  ΔTm at 10 µM: 1.85 °C
BRDT(1)
  ΔTm at 10 µM: 6.19 °C
PB1(6)
  ΔTm at 10 µM: 0.26 °C
SP140L
  ΔTm at 10 µM: 1.05 °C
ASH1L
  ΔTm at 10 µM: 0.41 °C
SP140
  ΔTm at 10 µM: 0.87 °C
BRPF3
  ΔTm at 10 µM: 0.95 °C
BRWD3(2)
  ΔTm at 10 µM: 0.74 °C
BAZ1B
  ΔTm at 10 µM: 1.67 °C
BAZ2B
  ΔTm at 10 µM: 0.38 °C
PB1(2)
  ΔTm at 10 µM: 0.27 °C
BRDT(2)
  ΔTm at 10 µM: 8.81 °C
EP300
  ΔTm at 10 µM: 2.49 °C
PB1(1)
  ΔTm at 10 µM: 0.79 °C
CREBBP
  ΔTm at 10 µM: 2.37 °C
